The results in this text go back to patent US10993937B2, “Composition, for preventing or treating dry eye syndrome, containing polyethylene glycol and flavonoid nanocomposite as active ingredient” (INJE UNIVERSITY INDUSTRY-ACADEMIC COOPERATION FOUNDATION, priority 2017, dated 2021).

Assay [1] concerns NOD.B10.H2^b mouse. Put plainly: Density of conjunctival goblet cells (PAS staining). It counts as in vivo. As to conditions: after treatment; control 12.86±0.76, dryness stress 6.19±0.16. As to the method: (§1) Eighty three NOD.B10.H2^b mice (6 weeks old) in total were obtained from the Jackson Laboratory (Bar Harbor, Me., USA) and performed an acclimatization process for 6 to 10 weeks. Mice were kept in a semi-pathogen free (SPF) facility, and feed and water were provided as free feed.
(§2) Six mice were used for histopathological analysis as a baseline. Seventy seven mice were injected subcutaneously four times daily for 10 days with 500 μg/200 μL of scopolamine hydrobromide (Sigma-Aldrich) which is a muscarinic receptor blocker. At this time, the mice were exposed to desiccation stress (DS) for 10 days, including air ventilation by the fan, with an average ambient humidity of 40% or less for 18 hours daily. On day 10 after scopolamine hydrobromide injection and dryness stress exposure, tear production was measured and a photograph of the cornea was taken.
(§3) On day 10 of DS, 11 mice were used for histopathological analysis. […] All treatments were performed by injecting five times a day and the amount of tear, corneal disorder and fluorescein scores were measured at baseline, day 10 of DS, and day 3, 5, 7, and 10 after treatment. […] In addition, expression of inflammatory factors associated with immunohistochemical staining in the lacrimal gland was evaluated. […]

Assay [2] relates to NOD.B10.H2^b mouse. Put plainly: Tear production analysis (phenol red-impregnated cotton threads) in mouse model of dry eye syndrome. The assay is classed as in vivo. As to conditions: for amount of tears: 1% eye drops 5 μL five times a day, mean±SD. As to the method:
as §1, §2
On day 10 of DS, 11 mice were used for histopathological analysis. Sixty six mice were randomly divided into six groups: vehicle (n=11, saline of 5 μL), catechin group (n=11, 1% catechin of 5 μL), CP1 group (n=11, 1% CP1 5 μL), CP5 group (n=11, 1% CP5 5 μL), CP10 group (n=11, 1% CP10 5 μL) and PEG group (n=11, 1% PEG 5 μL). All treatments were performed by injecting five times a day and the amount of tear, corneal disorder and fluorescein scores were measured at baseline, day 10 of DS, and day 3, 5, 7, and 10 after treatment. Hematoxylin and eosin (H&E) and PAS (periodic acid Schiff) staining were performed on the cornea and conjunctiva, respectively. In addition, expression of inflammatory factors associated with immunohistochemical staining in the lacrimal gland was evaluated.
The amount of tears was measured with reference to a previously reported paper (Eye Contact Lens. 2006; 32(6): 272-276). […] The amount of tears was calculated by comparison with a standard curve expressed using a basic solution (1.5 L of 0.9% saline and 5 mL of 5 N sodium hydroxide (NaOH)).

Another assay relates to TNF-α. Put plainly: Immunohistochemistry of lacrimal gland sections, TNF-α expression. It counts as in vivo, mouse. As to conditions: immunostaining; dryness stress 2.04 times of control. As to the method:
as §1, §2, §3

The test system of a further assay is IL-17. Put plainly: Immunohistochemistry of lacrimal gland sections, IL-17 expression. The assay is classed as in vivo, mouse. As to conditions: immunostaining; dryness stress 15.35 times of control. The protocol: as §1, §2, §3
For a further assay, the system named is ICAM-1. Put plainly: Immunohistochemistry of lacrimal gland sections, ICAM-1 expression. It counts as in vivo, mouse. As to conditions: versus day 10 of DS and the vehicle-treated group. The protocol: as §1, §2, §3
The test system of another assay is IL-6. Description: Immunohistochemistry of lacrimal gland sections, IL-6 expression. The assay is classed as in vivo, mouse. As to conditions: immunostaining; dryness stress 4.02 times of control. As to the method:
as §1, §2, §3

A further assay deals with MMP-9. Description: Immunohistochemistry of lacrimal gland sections, MMP-9 expression. It counts as in vivo, mouse. As to conditions: compared with the day 10 of DS. As to the method: as §1, §2, §3
The test system of assay [3] is NOD.B10.H2^b mouse. Description: Corneal fluorescence staining assay (NEI grading). It counts as in vivo. The protocol: as §1
Six mice were used for histopathological analysis as a baseline. Seventy seven mice were injected subcutaneously four times daily for 10 days with 500 μg/200 μL of scopolamine hydrobromide (Sigma-Aldrich) which is a muscarinic receptor blocker. […] On day 10 after scopolamine hydrobromide injection and dryness stress exposure, tear production was measured and a photograph of the cornea was taken.
(§4) On day 10 of DS, 11 mice were used for histopathological analysis. […] All treatments were performed by injecting five times a day and the amount of tear, corneal disorder and fluorescein scores were measured at baseline, day 10 of DS, and day 3, 5, 7, and 10 after treatment. […] In addition, expression of inflammatory factors associated with immunohistochemical staining in the lacrimal gland was evaluated.
Fluorescence staining of the cornea was performed with reference to a previously reported paper (CLAO J. 1995; 21: 221-232). […] Punctate staining was assessed using a standard NEI (national eye institute) grading system with scores of 0 to 3 on each of the five areas of the cornea.

The subject of a further assay is VCAM-1. Put plainly: Immunohistochemistry of lacrimal gland sections, VCAM-1 expression. It counts as in vivo, mouse. As to conditions: versus day 10 of DS and the vehicle-treated group. The protocol:
as §1, §2, §3

Assay [4] concerns NOD.B10.H2^b mouse. Description: Analysis of corneal irregularities (white ring, corneal disorder score). As to conditions: for corneal disorder score: 5-point scale. The assay is classed as in vivo. As to the method:
as §1, §2, §4
Corneal abnormality was measured with reference to a previously reported paper (Invest Ophthalmol Vis Sci. 2006; 47:2847-2856). […] Corneal smoothness was assessed by grading the irregularity of the corneal epithelial cells reflected in the white ring of the digital image. The reflected ring was divided into quarters and the corneal disorder score was calculated using the 5-point scale based on the number of distorted branches in the reflected ring: 0, no distortion; 1, a quarter of distortion; 2, two-quarters of distortion; 3, three-quarters of distortion; 4, four-quarters of distortion; 5, severe distortion.

A further assay relates to IL-1β. Put plainly: Immunohistochemistry of lacrimal gland sections, IL-1β expression. It counts as in vivo, mouse. As to conditions: immunostaining; dryness stress 3.55 times of control. As to the method: as §1, §2, §3

As for catechin, in the assay on NOD.B10.H2^b mouse [1], the “number of conjunctival goblet cells” value is given as 9.71±1.25 /0.1 mm^2. For the same substance, the amount of tears came out at 0.08 ± 0.03 µL in the assay on NOD.B10.H2^b mouse [2] (after 3 days of treatment) and 0.13 ± 0.01 µL in the assay with NOD.B10.H2^b mouse [2] (after 5 days of treatment). For the same substance, the “days of treatment after which tear production recovered to the baseline level” value in the assay on NOD.B10.H2^b mouse [2] (baseline 0.16±0.02 μL) came to 5 days. The “expression of TNF-α in the lacrimal gland” value in the assay on TNF-α was “no statistically significant difference with day 10 of DS”. The “IL-17 expression in the lacrimal gland” value in the assay with IL-17 is listed as “significantly decreased IL-17 expression”. Moreover, the “expression of ICAM-1, effect in words” value in the assay on ICAM-1 was “did not show statistically significant difference”. In addition, the “expression of IL-6 in the lacrimal gland” value in the assay on IL-6 is recorded as “no statistically significant difference with day 10 of DS”. Besides, in the assay on MMP-9, the “expression of MMP-9, effect in words” value is “significantly decreased the MMP-9 expression but did not recover to the control level”. Moreover, the “corneal fluorescence staining score” value came out at 6.67±0.58 in the assay on NOD.B10.H2^b mouse [3] (day 7 after treatment, vehicle 10.00±1.00) and 3.67±0.58 in the assay with NOD.B10.H2^b mouse [3] (day 10 after treatment). The “expression of VCAM-1, effect in words” value in the assay on VCAM-1 is listed as “did not show statistically significant difference”. Further, the “day after treatment on which white rings on the corneal surface were observed” value with NOD.B10.H2^b mouse [4] (FIG. 2A, microscopic image) was found to be 10 days. For the same substance, the corneal disorder score in the assay on NOD.B10.H2^b mouse [4] (day 7 after treatment, vehicle 3.63±0.48) was 2.88±0.48; in the assay on NOD.B10.H2^b mouse [4] (day 10 after treatment) it was 2.38±0.47. In addition, the “expression of IL-1β in the lacrimal gland” value in the assay on IL-1β is reported as “no statistically significant difference with day 10 of DS”.
